For this assay, the target named is prostate-specific membrane antigen (PSMA) (Homo sapiens, UniProt Q04609). Kind of assay: purified PSMA, PABGgG hydrolysis by HPLC. Type of assay: biochemical.
Chain of prostate-specific membrane antigen (PSMA) (Q04609 whole entry): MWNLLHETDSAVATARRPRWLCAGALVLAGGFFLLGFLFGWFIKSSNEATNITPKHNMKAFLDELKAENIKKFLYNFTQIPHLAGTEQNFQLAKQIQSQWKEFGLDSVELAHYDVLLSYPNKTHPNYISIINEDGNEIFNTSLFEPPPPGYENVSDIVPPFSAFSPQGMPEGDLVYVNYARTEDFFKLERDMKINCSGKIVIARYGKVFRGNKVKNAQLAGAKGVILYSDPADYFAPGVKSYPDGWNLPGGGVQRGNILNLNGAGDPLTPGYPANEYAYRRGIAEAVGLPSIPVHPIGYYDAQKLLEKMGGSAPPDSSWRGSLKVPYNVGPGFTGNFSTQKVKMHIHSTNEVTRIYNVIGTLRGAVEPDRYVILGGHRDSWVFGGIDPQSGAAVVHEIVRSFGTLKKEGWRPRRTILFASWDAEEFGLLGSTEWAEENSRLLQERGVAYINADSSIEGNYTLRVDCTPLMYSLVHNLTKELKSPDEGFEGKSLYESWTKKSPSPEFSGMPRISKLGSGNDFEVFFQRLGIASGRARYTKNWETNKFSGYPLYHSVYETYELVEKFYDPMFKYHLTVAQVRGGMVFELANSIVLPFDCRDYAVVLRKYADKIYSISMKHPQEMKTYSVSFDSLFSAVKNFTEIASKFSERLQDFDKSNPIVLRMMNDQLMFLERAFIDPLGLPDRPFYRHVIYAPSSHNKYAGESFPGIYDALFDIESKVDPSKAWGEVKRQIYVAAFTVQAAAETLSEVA

In the case of DBCO-PEG4-CTT-54 [compound 5], half-maximal inhibition (IC50) was put at 1 nM.

Regarding DBCO-PEG4-CTT-54.2 [compound 6], the midpoint of inhibition, the IC50, lay at 6.6 nM.

For orientation: IC50 means the concentration that gives 50% inhibition. A high value points to weaker potency.

The values above are taken from PMC4414331 (The Prostate, 2012).
